Data: US7598377B2, “Inhibition of phosphoinositide 3-kinase β” (AstraZeneca AB, priority 2002, dated 2009)
Like-named read-outs stand apart in the source and are kept apart here.

Assays:
[1] = target: T1, p110δ-PI3K (Homo sapiens, UniProt O00329); experiment: In vitro enzyme assay, p110δ immunoprecipitated from platelet lysate (Biological Example 1); assay type: biochemical; conditions: read-out: IC50 (μM), p110δ-PI3K
T1 construct: from tissue; host or cells: washed platelets (lysate, immunoprecipitated with anti-p110δ antibody)
Procedure: (§1) For each immunoprecipitation, 1 mg of lysate was incubated with an anti-p110α (1 μg), anti-p110β (1 μg), anti-p110δ (1 μg) or anti-PI4 kinase antibody (2-5 μg) and 50 μl of a 50% slurry of protein A beads overnight at 4° C. […] For PI4 kinase assays, protein A beads-immune complexes were also washed twice with lysis buffer, prior to two washes with 1× PI4 kinase assay buffer (20 mM Hepes, pH 7.5, 10 mM MgCl2, 0.3% Triton X-100) and the addition of other assay constituents, as described above. All reactions were terminated by the addition of 100 μl 1 M HCl, 200 μl choloroform/methanol (1:1) and 500 μl 2 M KCl and lipids extracted by centrifugation at 15,000×g for 2 minutes. The production of PI3 or PI4 kinase lipid products, PtdIns(3)P and PtdIns(4)P, were confirmed through TLC analysis. The lipid spots were then removed from the TLC plate and the level of radioactivity quantified to accurately determine the level of PtdIns(3)P/PtdIns(4)P production.

[2] = system: PI4K; experiment: PI4 kinase assay, immunoprecipitated from platelet lysate; assay type: biochemical
Procedure: as §1

[3] = target: Ab1 (Homo sapiens, UniProt P00519); experiment: Tyrosine kinase assay by MDS Pharma Services (Panlabs); assay type: biochemical
[4] = system: rat tail bleeding time; experiment: Tail bleeding studies in rats; assay type: in vivo
Procedure: Rats were anaesthetised with halothane in room air supplemented with O2. Tail bleeding time was measured 15 min before drug administration (−15), and 5 and 30 min after administration. For experiments involving pretreatment with aspirin and clopidogrel, tail bleeding time was also measured before the first gavage dose at −25 h. Incisions 5 mm long and 1 mm deep were made in the tail at each time point and bleeding was monitored every 30 sec until it had ceased (=tail bleeding time).

[5] = target: Fyn (Homo sapiens, UniProt P06241); experiment: Tyrosine kinase assay by MDS Pharma Services (Panlabs); assay type: biochemical
[6] = target: T2, p110α-PI3K (Homo sapiens, UniProt P42336); experiment: In vitro enzyme assay, p110α immunoprecipitated from platelet lysate (Biological Example 1); assay type: biochemical
T2 construct: The α and β isoforms of the PI3K were immunoprecipitated from a platelet lysate; from tissue; host or cells: washed platelets (lysate, immunoprecipitated with anti-p110α antibody)
Procedure: as §1

[7] = target: PKA Non-selective; experiment: Ser/Thr kinase assay by MDS Pharma Services (Panlabs); assay type: biochemical
[8] = target: HER2 Receptor (Homo sapiens, UniProt P04626); experiment: Tyrosine kinase assay by MDS Pharma Services (Panlabs); assay type: biochemical
[9] = target: ERK1 (Homo sapiens, UniProt P27361); experiment: Ser/Thr kinase assay by MDS Pharma Services (Panlabs); assay type: biochemical
[10] = system: PI 3-kinase lipid products in platelets; experiment: Shear-induced PI 3-kinase lipid products in platelets (cone & plate device, HPLC); assay type: cell-based
Procedure: Measurements of the lipid products PtdIns(4,5)P2 and PtdIns(3,4)P2 in intact platelets were performed by initially isolating lipids by HPLC and identifying lipid peaks using defined PtdIns(4,5)P2 and PtdIns(3,4)P2 standards. Lipids were integrated and normalized to total lipid applied and expressed as a fraction of untreated (control) samples.
For this assay, whole blood was collected in the presence of anti-coagulant [6 volumes blood to 1 volume anticoagulant (90 mM sodium citrate, 7 mM citric acid, pH 4.6, 140 mM dextrose and 70 mM theophylline)] and platelets isolated and washed using a modified method of Baezinger and Majerus (1974). Briefly, platelet-rich plasma (PRP) was obtained by centrifugation of whole blood at 200×g for 30 minutes. Platelets were then pelleted by centrifugation of the PRP at 2,000×g for 10 minutes. The platelet pellet was resuspended in platelet washing buffer (PWB) [4.3 mM K2HPO4, 4.3 mM Na2HPO4, 24.3 mM NaH2PO4, pH 6.5, 113 mM NaCl, 5.5 mM glucose, 0.5% bovine serum albumin (BSA) and 10 mM theophylline]. […] Lipid peaks co-eluting with commercially available PtdIns(3,4)P2 and PtdIns(4,5)P2 standards were integrated and normalized to total lipid applied and expressed as a fraction of control samples.

[11] = target: p38α (Homo sapiens, UniProt Q16539); experiment: Ser/Thr kinase assay by MDS Pharma Services (Panlabs); assay type: biochemical
[12] = system: carotid artery occlusive thrombus formation in rabbits; experiment: Modified Folts model in rabbits; assay type: in vivo, New Zealand White rabbits
Procedure: (§2) Studies were approved by the University of Melbourne Animal Ethics Committee in accordance with the guidelines of the National Health & Medical Research Council of Australia. Anaesthesia was induced in Sprague-Dawley rats (260-400 g) with sodium pentobarbitone (Nembutal; 60 mg/kg i.p.; Merial Australia Pty. Ltd., Sydney, NSW, Australia), and in New Zealand White rabbits (2-3 kg) with pentobarbitone (15 mg/kg i.v.) and fentanyl (6 μg/kg i.v.; David Bull Laboratories, Mulgrave, VIC, Australia). Animals were mechanically ventilated (Ugo Basile ventilator, Comerio, VA, Italy) with room air supplemented with O2. Body temperature was maintained throughout the experiment. Arterial blood pressure was measured via a femoral artery catheter connected to a pressure transducer (Model 1050.1, AD Instruments, Sydney, NSW) and a blood flow probe (1 mm i.d. for rats & 2.5 mm i.d. for rabbits; flowmeter […], Transonic Systems Inc., Ithaca, N.Y., USA) was placed around each (control and test) carotid artery; all parameters were recorded on a PowerLab data acquisition system (8SP; AD Instruments). A silk suture was tied loosely around 1 artery, distal to the flow probe, for subsequent stenosis. […] Carotid blood flow was monitored until it reached 0 ml/min, indicating a clot had formed at the site of stenosis. […] Again, carotid blood flow was monitored until it reached 0 ml/min, and the time recorded. […]

[13] = system: carotid artery occlusive thrombus formation in rats; experiment: Modified Folts model in rats; assay type: in vivo, Sprague-Dawley rats
Procedure: as §2

[14] = target: Insulin Receptor (Homo sapiens, UniProt P06213); experiment: Tyrosine kinase assay by MDS Pharma Services (Panlabs); assay type: biochemical
[15] = target: EGF Receptor (Homo sapiens, UniProt P00533); experiment: as above; assay type: biochemical
Sequence of EGF Receptor (P00533 25-1210): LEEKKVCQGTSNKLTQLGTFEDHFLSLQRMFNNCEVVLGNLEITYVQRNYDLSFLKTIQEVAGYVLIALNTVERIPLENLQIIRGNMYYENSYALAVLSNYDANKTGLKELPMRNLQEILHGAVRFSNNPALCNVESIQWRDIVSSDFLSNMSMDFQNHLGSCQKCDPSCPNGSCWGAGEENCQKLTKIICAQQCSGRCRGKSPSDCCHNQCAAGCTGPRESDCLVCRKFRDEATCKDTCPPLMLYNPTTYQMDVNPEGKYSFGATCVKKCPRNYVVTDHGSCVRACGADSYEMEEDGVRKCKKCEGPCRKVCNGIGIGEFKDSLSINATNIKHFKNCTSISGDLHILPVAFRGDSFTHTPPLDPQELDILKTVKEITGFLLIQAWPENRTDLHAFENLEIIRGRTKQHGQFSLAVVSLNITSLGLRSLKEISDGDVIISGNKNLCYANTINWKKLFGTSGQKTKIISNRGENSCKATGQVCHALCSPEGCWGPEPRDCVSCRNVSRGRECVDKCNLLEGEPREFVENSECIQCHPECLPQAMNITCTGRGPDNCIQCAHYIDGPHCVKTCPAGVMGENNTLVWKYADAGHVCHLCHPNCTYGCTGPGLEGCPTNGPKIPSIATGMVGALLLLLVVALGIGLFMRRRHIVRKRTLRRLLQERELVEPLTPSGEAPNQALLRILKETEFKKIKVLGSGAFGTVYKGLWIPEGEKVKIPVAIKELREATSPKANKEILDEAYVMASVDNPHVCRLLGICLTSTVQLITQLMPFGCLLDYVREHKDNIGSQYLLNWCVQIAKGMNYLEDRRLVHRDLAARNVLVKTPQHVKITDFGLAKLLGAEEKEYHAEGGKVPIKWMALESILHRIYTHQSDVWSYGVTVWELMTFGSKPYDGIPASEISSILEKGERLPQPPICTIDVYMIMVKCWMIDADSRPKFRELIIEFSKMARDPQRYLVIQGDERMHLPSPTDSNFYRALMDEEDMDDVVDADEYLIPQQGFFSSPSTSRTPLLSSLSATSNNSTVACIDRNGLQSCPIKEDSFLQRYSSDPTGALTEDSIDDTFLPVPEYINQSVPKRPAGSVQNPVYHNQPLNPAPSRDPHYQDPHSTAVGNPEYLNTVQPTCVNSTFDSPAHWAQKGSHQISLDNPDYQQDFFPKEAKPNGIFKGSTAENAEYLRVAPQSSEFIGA

T2 sequence (P42336 whole entry, canonical isoform): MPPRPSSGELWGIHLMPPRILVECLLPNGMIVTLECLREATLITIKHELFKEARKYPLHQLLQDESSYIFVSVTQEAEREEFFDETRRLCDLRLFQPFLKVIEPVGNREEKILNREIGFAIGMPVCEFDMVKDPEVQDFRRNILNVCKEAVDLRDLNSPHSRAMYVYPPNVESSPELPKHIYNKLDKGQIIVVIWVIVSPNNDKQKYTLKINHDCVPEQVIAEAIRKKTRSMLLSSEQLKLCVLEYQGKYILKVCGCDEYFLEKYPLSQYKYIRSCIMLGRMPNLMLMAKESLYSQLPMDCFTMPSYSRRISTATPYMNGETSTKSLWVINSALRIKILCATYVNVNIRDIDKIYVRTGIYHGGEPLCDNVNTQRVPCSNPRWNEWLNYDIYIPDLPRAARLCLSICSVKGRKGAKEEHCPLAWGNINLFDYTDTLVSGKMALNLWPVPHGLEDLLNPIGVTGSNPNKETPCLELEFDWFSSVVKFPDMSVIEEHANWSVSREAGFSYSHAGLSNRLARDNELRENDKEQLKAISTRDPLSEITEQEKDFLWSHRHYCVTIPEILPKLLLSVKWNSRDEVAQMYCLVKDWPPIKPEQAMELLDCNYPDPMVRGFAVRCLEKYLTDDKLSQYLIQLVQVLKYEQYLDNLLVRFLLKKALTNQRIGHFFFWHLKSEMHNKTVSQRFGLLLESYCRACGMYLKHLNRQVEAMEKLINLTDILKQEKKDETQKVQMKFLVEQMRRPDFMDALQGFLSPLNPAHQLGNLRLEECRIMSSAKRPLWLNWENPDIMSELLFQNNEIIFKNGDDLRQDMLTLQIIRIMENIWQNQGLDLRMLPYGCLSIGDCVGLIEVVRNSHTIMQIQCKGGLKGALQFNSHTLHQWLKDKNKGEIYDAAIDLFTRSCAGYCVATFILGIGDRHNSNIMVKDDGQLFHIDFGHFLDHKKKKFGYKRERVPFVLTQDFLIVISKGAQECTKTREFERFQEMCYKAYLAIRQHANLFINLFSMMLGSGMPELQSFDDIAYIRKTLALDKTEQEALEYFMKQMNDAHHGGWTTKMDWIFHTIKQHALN
T2 sequence (P27986 whole entry partner, canonical isoform): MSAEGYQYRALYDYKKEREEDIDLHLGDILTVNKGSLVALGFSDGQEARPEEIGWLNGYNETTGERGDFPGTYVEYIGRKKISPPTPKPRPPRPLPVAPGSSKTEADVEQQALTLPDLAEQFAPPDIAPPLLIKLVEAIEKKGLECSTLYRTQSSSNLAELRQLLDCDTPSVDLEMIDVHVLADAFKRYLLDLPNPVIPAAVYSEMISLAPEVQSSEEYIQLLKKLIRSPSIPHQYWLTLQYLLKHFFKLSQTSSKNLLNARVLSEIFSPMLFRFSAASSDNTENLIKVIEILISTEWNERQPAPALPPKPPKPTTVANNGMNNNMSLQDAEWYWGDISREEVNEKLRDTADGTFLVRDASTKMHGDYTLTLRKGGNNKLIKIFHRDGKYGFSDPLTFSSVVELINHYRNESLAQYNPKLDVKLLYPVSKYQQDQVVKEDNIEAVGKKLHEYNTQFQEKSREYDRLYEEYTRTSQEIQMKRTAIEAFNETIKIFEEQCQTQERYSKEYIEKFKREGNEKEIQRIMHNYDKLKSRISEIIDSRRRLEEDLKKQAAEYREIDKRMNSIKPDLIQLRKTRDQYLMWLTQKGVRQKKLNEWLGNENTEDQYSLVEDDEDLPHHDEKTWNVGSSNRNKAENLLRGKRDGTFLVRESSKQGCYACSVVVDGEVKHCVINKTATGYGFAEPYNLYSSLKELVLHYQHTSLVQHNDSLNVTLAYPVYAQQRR
Sequence of Fyn (P06241 whole entry, species assumed): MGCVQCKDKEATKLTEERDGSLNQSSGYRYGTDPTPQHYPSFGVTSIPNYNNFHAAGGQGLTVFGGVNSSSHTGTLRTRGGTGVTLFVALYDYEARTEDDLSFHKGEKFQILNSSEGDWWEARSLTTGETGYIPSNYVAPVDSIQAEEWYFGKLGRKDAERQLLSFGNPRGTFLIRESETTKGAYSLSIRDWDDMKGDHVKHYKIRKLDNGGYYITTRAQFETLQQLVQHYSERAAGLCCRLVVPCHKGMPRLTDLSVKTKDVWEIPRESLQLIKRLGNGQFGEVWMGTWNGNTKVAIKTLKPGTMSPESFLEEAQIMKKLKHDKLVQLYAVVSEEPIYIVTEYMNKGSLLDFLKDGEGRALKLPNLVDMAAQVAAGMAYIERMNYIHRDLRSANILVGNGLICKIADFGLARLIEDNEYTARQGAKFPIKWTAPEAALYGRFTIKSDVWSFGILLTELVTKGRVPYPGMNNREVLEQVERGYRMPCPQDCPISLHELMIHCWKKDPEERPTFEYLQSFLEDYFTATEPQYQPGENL
Sequence of Insulin Receptor (P06213 28-1382, species assumed): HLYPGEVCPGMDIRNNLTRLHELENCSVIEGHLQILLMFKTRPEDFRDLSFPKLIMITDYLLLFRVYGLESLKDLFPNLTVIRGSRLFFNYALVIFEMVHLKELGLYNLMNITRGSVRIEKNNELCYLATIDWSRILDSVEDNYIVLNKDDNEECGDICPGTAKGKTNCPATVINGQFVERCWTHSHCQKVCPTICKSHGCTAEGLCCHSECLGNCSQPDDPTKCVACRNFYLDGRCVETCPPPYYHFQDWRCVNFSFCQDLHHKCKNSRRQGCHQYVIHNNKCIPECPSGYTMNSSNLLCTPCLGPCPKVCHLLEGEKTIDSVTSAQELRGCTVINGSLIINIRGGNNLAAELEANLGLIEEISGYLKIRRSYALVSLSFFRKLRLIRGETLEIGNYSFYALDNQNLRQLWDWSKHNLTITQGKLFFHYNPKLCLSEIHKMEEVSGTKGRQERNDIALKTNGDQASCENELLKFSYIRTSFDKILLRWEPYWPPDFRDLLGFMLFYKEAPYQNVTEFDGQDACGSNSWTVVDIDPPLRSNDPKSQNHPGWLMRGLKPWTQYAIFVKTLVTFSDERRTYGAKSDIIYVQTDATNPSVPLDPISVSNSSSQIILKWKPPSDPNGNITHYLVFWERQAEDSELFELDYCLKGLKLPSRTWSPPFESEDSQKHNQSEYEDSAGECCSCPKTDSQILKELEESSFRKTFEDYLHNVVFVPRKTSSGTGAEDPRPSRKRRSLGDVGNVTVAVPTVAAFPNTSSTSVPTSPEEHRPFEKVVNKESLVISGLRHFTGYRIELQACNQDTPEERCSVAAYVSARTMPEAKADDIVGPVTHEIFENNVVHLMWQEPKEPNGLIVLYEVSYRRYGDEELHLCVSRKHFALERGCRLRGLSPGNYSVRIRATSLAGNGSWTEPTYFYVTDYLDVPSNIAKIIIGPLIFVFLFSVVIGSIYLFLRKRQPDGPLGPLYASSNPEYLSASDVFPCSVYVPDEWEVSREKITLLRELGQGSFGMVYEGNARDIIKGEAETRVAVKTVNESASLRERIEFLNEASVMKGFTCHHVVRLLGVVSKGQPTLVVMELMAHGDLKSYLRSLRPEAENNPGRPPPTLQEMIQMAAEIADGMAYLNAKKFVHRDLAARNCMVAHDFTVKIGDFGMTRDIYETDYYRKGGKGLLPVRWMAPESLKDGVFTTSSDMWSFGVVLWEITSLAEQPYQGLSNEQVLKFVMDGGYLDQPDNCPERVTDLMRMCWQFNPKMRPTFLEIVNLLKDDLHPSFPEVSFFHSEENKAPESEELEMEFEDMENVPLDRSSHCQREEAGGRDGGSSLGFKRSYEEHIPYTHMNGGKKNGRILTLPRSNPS

## Cc1cc(C(C)Nc2ccccc2)c2nc(N3CCOCC3)cc(=O)n2c1 (racemic) [TGX-221, (±)-7-methyl-2-morpholin-4-yl-9-(1-phenylaminoethyl)-pyrido[1,2-a]pyrimidin-4-one]
[1]
  IC50: 0.1 µM
[2]
  IC50: > 10 µM
[2]; in words
  inhibitory effect on PI4 kinase: minimal inhibitory effect
[3]
  IC50: > 10 µM
[4]; TGX-221 2 mg/kg i.v. in combination with either clopidogrel or aspirin
  bleeding time: did not affect bleeding time
[4]; TGX-221 2 mg/kg i.v. with aspirin 200 mg/kg p.o.+heparin 100 U/kg i.v.
  prolonged bleeding time caused by co-administered agents: did not exacerbate
[4]; TGX-221 2 mg/kg i.v. with clopidogrel 10 mg/kg p.o.+heparin 100 U/kg i.v.
  prolonged bleeding time caused by co-administered agents: did not exacerbate
[4]; TGX-221 20 mg/kg i.v. alone
  rat tail bleeding time: unaffected
[4]; TGX-221 20 mg/kg i.v. with heparin 100 U/kg i.v.
  rat tail bleeding time: unaffected
[4]; administered at >20 fold the minimum therapeutic concentration
  bleeding time: did not increase bleeding time
[4]; in words
  normal haemostasis as assessed by tail or ear bleeding times: did not adversely impact
[5]
  IC50: > 10 µM
[6]; Table I, read-out: inhibitory concentration, alpha
  IC50: > 5 µM
[6]; read-out: IC50 (μM), p110α-PI3K
  IC50: 5 µM
[7]
  IC50: > 10 µM
[8]
  IC50: > 10 µM
[9]
  IC50: > 10 µM
[10]; in words
  cellular levels of conventional phosphoinositides PtdIns, PtdIns(4)P and PtdIns(4,5)P2: without altering
[10]; shear 5000 s^−1, in words
  PI 3-kinase lipid generation: selectively inhibited PI 3-kinase lipid generation
[11]
  IC50: > 10 µM
[12]; 2 mg/kg i.v. bolus
  animals in which occlusive thrombus formation was immediately abolished: 100%
[12]; 2 mg/kg, in words
  occlusive thrombus formation: completely prevented
[13]; 2 mg/kg i.v. bolus
  animals in which occlusive thrombus formation was immediately abolished: 100%
[13]; 2 mg/kg, in words
  occlusive thrombus formation: completely prevented
[14]
  IC50: > 10 µM
[15]
  IC50: > 10 µM
